Experimental data published in US20130209515A1, “ANTI-INFECTIVE AND IMMUNOMODULATORY COMPOUNDS” (priority 2005, published 2013).

What was measured:
[1] = system: 4-hydroxy-2-alkylquinoline (HAQ) production; assay type: cell-based, Pseudomonas aeruginosa
[2] = system: P. aeruginosa cells; assay type: cell-based, Pseudomonas aeruginosa; details: 3 mM 2AA
[3] = system: P. aeruginosa PA14; assay: Mouse burn and infection (BI) model, survival; assay type: in vivo, mice
Description: Burn wound infection in mice can be established by subcutaneous or topical administration of the bacteria to the sites of the burn. […] Six-week old CD-1 male mice were used.
To induce infection, the mice were placed under general anesthesia via intraperitonial injection of 40 mg/kg Pentobarbital, the ventral surface was shaved, and a central skin fold elevated was simultaneously compressed from both sides for 5 seconds using two 2×2 cm metal blocks preheated to 95-100° C., to produce a non-lethal 5-8% full thickness burn with negligible focal necrosis of the underlying muscle or damage to underlying visceral organs. IP saline was administered for fluid resuscitation for ≧5% total body surface burns: avoiding vital structures, saline was injected into the left lower quadrant of the abdominal area of the anesthetized animal post-burn. This burn procedure was followed by mid-eschar inoculation of 100 μL of bacterial suspension containing ˜5×10^5 CFU. The animals were returned to their cages and provided mouse chow and water ad libitum. Animals typically recover from the anesthesia within 20 minutes post-administration. Criteria used to evaluate anesthesia recovery are state of alertness, mobility, and reaction to surrounding stimuli. Mice were monitored twice a day for symptoms and deaths, with increased monitoring every 6-8 hours during the period of greatest potential for infection and clinical disease.
The mouse full-thickness skin thermal injury infection model was used to test if 2AA restricts P, aeruginosa virulence. This model is predictable and reproducible; clinically relevant; and can lead to MODS and mortality. Briefly, a ˜15% total burn surface area (TBSA) thermal scalding injury is produced on the abdominal skin, leaving the underlying muscle intact, and the inoculum is delivered into the scald eschar. […]

[4] = system: PA14; assay: Neonatal mouse lung infection model, lung histopathology; assay type: in vivo, mice
Description: We next assessed the morphological dynamics of PA14 infection in the presence of 2AA in a neonatal mouse lung infection model (Tang et al., Infection & Immunity 64:37-43, 1996), which is relevant to CF. A minimum inoculum of 1.5×10^5 PA14 cells/animal is 100% lethal in this model. Mice were treated with 2AA 4 days pre-infection, sacrificed at 24, 48, and 72 hr post-infection, and lung histopathology was assessed and compared to that of controls. PA14 infection alone produces rapidly developing inflammation that by 24 hr presents with red hepatization and development of lobular pneumonia. By 48 hours, the lung pathology includes most of the parenchyma with extensive formation of bacteria-filled necrotic foci (FIG. 12B). These observations are also consistent with our previous mortality studies using this lung model that indicate 100% mortality by 60 hr.

[5] = probable ATP-binding component of ABC transporter

## CC(=O)c1ccccc1N [2AA, 2′-aminoacetophenone]
[1]
  HHQ production: no HHQ was produced
  HQNO accumulation: higher accumulation of HQNO
  PQS production: only a limited quantity of PQS was produced
  production of 3,4-dihydroxy-2-heptylquinoline (PQS): decreased
  production of 4-hydroxy-2-heptylquinoline (HHQ): decreased
  production of 4-hydroxy-2-heptylquinoline N-oxide (HQNO): enhanced
[2]; harvested at OD600 of 3.0
  genes whose expression was altered more than 2 fold: approximately 1250 genes
[2]; more than 2 fold
  genes downregulated: 1056 genes
  genes upregulated: 199 genes
[2]; 3-hydroxyisobutyrate dehydrogenase mmsB
  FOLD CHANGE PA3569: −2.6 fold
[2]; 3-oxoacyl-[acyl-carrier-protein] synthase III pqsD
  FOLD CHANGE PA0999: −5.2 fold
[2]; PA-I galactophilic lectin
  FOLD CHANGE PA2570: −4.5 fold
[2]; anthranilate synthase component I, phnA
  FOLD CHANGE PA1001: −6.2 fold
[2]; anthranilate synthase component II, phnB
  FOLD CHANGE PA1002: −4.9 fold
[2]; carbon storage regulator csrA
  FOLD CHANGE PA0905: −2.7 fold
[2]; chemotaxis protein CheZ
  FOLD CHANGE PA1457: −2.1 fold
[2]; chitinase
  FOLD CHANGE PA2300: −3.2 fold
[2]; conserved hypothetical protein
  FOLD CHANGE PA0122: −3.4 fold
  FOLD CHANGE PA0567: −3.0 fold
  FOLD CHANGE PA1914: −26.3 fold
  FOLD CHANGE PA2754: −2.0 fold
  FOLD CHANGE PA4739: −3.7 fold
[2]; general secretion pathway protein D
  FOLD CHANGE PA3105: −2.2 fold
[2]; general secretion pathway protein G
  FOLD CHANGE PA3101: −3.4 fold
[2]; general secretion pathway protein H
  FOLD CHANGE PA3100: −2.1 fold
[2]; general secretion pathway protein I
  FOLD CHANGE PA3099: −2.2 fold
[2]; general secretion pathway protein J
  FOLD CHANGE PA3098: −2.2 fold
[2]; general secretion pathway protein L
  FOLD CHANGE PA3096: −2.8 fold
[2]; glyceraldehyde 3-phosphate dehydrogenase
  FOLD CHANGE PA3195: −3.2 fold
[2]; heat-shock protein IbpA
  FOLD CHANGE PA3126: −2.5 fold
[2]; hydrogen cyanide synthase HcnB
  FOLD CHANGE PA2194: −3.5 fold
[2]; hydrogen cyanide synthase HcnC
  FOLD CHANGE PA2195: −2.9 fold
[2]; hypothetical protein MexG
  FOLD CHANGE PA4205: −6.1 fold
[2]; hypothetical protein pqsB
  FOLD CHANGE PA0997: −4.6 fold
[2]; hypothetical protein pqsC
  FOLD CHANGE PA0998: −5.4 fold
[2]; hypothetical protein pqsE
  FOLD CHANGE PA1000: −4.3 fold
[2]; hypothetical protein
  FOLD CHANGE PA1216: −2.7 fold
  FOLD CHANGE PA1852: −2.3 fold
  FOLD CHANGE PA2031: −2.0 fold
  FOLD CHANGE PA2134: −2.5 fold
  FOLD CHANGE PA2172: −2.4 fold
  FOLD CHANGE PA2173: −2.3 fold
  FOLD CHANGE PA2274: −3.7 fold
  FOLD CHANGE PA2328: −4.5 fold
  FOLD CHANGE PA2330: −11.7 fold
  FOLD CHANGE PA2331: −10.9 fold
  FOLD CHANGE PA2486: −2.3 fold
  FOLD CHANGE PA3031: −3.1 fold
  FOLD CHANGE PA3370: −2.2 fold
  FOLD CHANGE PA3371: −2.1 fold
  FOLD CHANGE PA3691: −7.0 fold
  FOLD CHANGE PA4917: −2.1 fold
[2]; methylmalonate-semialdehyde dehydrogenase
  FOLD CHANGE PA3570: −2.9 fold
[2]; osmotically inducible lipoprotein OsmE
  FOLD CHANGE PA4876: −2.6 fold
[2]; outer membrane porin OprB precursor
  FOLD CHANGE PA3186: −2.2 fold
[2]; phenazine biosynthesis protein PhzC
  FOLD CHANGE PA1901: −3.4 fold
[2]; phenazine biosynthesis protein PhzD
  FOLD CHANGE PA1902: −3.4 fold
[2]; phenazine biosynthesis protein PhzE
  FOLD CHANGE PA1903: −3.1 fold
[2]; [5]
  FOLD CHANGE PA2329: −9.8 fold
  FOLD CHANGE PA3187: −2.6 fold
[2]; probable FAD-dependent monooxygenase phzS1
  FOLD CHANGE PA4217: −5.4 fold
[2]; probable O-methyltransferase phzM
  FOLD CHANGE PA4209: −2.4 fold
[2]; probable RND efflux membrane fusion protein precursor mexH
  FOLD CHANGE PA4206: −5.9 fold
[2]; probable RND efflux transporter mexI
  FOLD CHANGE PA4207: −7.5 fold
[2]; probable carbamoyl transferase
  FOLD CHANGE PA2069: −2.5 fold
[2]; probable coenzyme A ligase pqsA
  FOLD CHANGE PA0996: −3.0 fold
[2]; probable component of ABC transporter
  FOLD CHANGE PA2204: −3.1 fold
[2]; probable hydrolase
  FOLD CHANGE PA2067: −2.5 fold
[2]; probable iron-binding protein IscA
  FOLD CHANGE PA3812: −5.9 fold
[2]; probable iron-binding protein IscU
  FOLD CHANGE PA3813: −6.7 fold
[2]; probable outer membrane efflux protein precursor, OpmD
  FOLD CHANGE PA4208: −6.8 fold
[2]; probable outer membrane protein
  FOLD CHANGE PA3692: −4.7 fold
[2]; probable permease of ABC sugar transporter
  FOLD CHANGE PA3189: −2.0 fold
[2]; probable permease of ABC transporter
  FOLD CHANGE PA2327: −4.9 fold
[2]; probable phenazine biosynthesis protein phzA1
  FOLD CHANGE PA4210: −3.3 fold
[2]; probable phenazine biosynthesis protein phzB1
  FOLD CHANGE PA4211: −2.9 fold
[2]; probable phenazine biosynthesis protein
  FOLD CHANGE PA1904: −3.6 fold
[2]; probable pyridoxamine 5′-phosphate oxidase
  FOLD CHANGE PA1905: −3.4 fold
[2]; probable transporter
  FOLD CHANGE PA4218: −5.3 fold
[2]; protease pfpI
  FOLD CHANGE PA0355: −2.7 fold
[2]; two-component response regulator CheY
  FOLD CHANGE PA1456: −2.3 fold
[3]; 10 mM solutions IV 4 days pre-BI (FIGS. 11A, 11B)
  protection (survival curves): significantly greater
[3]; 2AA injected in the scald eschar 1 hr post BI (FIG. 7)
  time to succumb to PA14 lethality: significantly later
[3]; IP 2AA injection 3 days pre-BI
  survival: 50%
[3]; IP 2AA injection 8 days pre-BI
  survival: 50%
[3]; IP 2AA injection up to 4 weeks pre-BI
  mortality: 50%
[3]; IP 500 μl of 20 mM, 2 days pre-BI, controls ~90%
  mortality: 60%
[3]; IV 100 μl of 10 mM, 4 days pre-BI
  survival to PA14 infection: ~90%
[3]; IV tail vein 100 μl of 10 mM, four days prior to burn/infection, n=8-10, control 10% (FIG. 9)
  average survival after 5 days: 50%
[3]; single IP injection 500 μl of 20 mM, 6 hours pre-BI
  protection (survival): no protection
[4]; 2AA 4 days pre-infection
  development of lung inflammation in response to PA14 infection: greatly delayed rates of development of inflammation
[4]; PA14 infection 4 days post-2AA treatment, 48 hours (FIG. 12C)
  lung histopathology: Slight peribronchial infiltrate of inflammatory cells is present at 48 hours but no significant interstitial involvement
